From patent US8435978B2, “Substituted sulfonamide compounds” (Gruenenthal GmbH, priority 2006, dated 2013)

How the values were obtained:
human B1R receptor = target: T1, human B1R receptor (Homo sapiens, UniProt P46663); experiment: Functional study on the bradykinin receptor 1 (B1R), FLIPR Ca2+ assay, hB1R cells; assay type: cell-based; details: agonist Lys-Des-Arg9-bradykinin 0.5 nM, % inhibition compared with the maximum achievable inhibition; for inhibition at 10 µM: CHO-K1, test substance 10 μM, read-out: B1R Antagonism, human [10 μM] % Inhibition
T1 construct: host or cells: CHO K1 cells (Chinese hamster ovary), stably transfected
T1 sequence (P46663 1-353): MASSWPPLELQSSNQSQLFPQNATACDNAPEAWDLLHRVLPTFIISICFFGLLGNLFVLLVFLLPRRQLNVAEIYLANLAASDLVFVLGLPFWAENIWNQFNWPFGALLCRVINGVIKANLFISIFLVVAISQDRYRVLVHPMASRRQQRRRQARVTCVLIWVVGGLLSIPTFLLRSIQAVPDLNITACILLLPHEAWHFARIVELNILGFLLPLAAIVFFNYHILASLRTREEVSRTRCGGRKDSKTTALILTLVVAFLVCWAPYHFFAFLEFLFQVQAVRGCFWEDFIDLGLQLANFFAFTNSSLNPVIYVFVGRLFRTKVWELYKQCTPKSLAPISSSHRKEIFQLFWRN
Description: (§1) The agonistic or antagonistic action of substances can be quantified on the bradykinin receptor 1 (B1R) of the species human and rat with ectopically expressing cell lines (CHO K1 cells) and with the aid of a Ca^2+-sensitive dye (Fluo-4) using a fluorescent imaging plate reader (FLIPR). The indication in % activation is based on the Ca^2+ signal after addition of Lys-Des-Arg^9-bradykinin (0.5 nM) or Des-Arg^9-bradykinin (100 nM). Antagonists result in a suppression of the Ca^2+ influx following administration of the agonist. The % inhibition in comparison with the maximum achievable inhibition is indicated.
(§2) The agonistic or antagonistic action of substances can be determined on the bradykinin receptor 1 (B1R) of the species human and rat using the following assay. According to this assay, the Ca^2+ influx through the channel is quantified with the aid of a Ca^2+-sensitive dye (type Fluo-4, Molecular Probes Europe BV, Leiden, Netherlands) using a Fluorescent Imaging Plate Reader (FLIPR, Molecular Devices, Sunnyvale, USA).
(§3) Chinese hamster ovary cells (CHO K1 cells) which have been stably transfected with the human B1R gene (hB1R cells, Euroscreen s.a., Gosselies, Belgium) or with the B1R gene of the rat (rB1R cells, Axxam, Milan, Italy) are used. For functional studies, the cells are plated out on black 96-well plates having a clear base (BD Biosciences, Heidelberg, Germany) in a density of 20,000-25,000 cells/well. The cells are incubated overnight at 37° C. and with 5% CO2 in culture medium (hB1R cells: Nutrient Mixture Ham's F12, Gibco Invitrogen GmbH, Karlsruhe, Germany; rB1R cells: D-MEM/F12, Gibco Invitrogen GmbH, Karlsruhe, Germany), with 10 vol. % FBS (fetal bovine serum, Gibco Invitrogen GmbH, Karlsruhe, Germany). On the following day, the cells are loaded for 60 minutes at 37° C. with 2.13 μM Fluo-4 (Molecular Probes Europe BV, Leiden, Netherlands) in HBSS buffer (Hank's buffered saline solution, Gibco Invitrogen GmbH, Karlsruhe, Germany) […] (Sigma-Aldrich, Taufkirchen, Germany) and 10 mM HEPES (Sigma-Aldrich, Taufkirchen, Germany). The plates are then washed twice with HBSS buffer, and HBSS buffer additionally containing 0.1% BSA (bovine serum albumin; Sigma-Aldrich, Taufkirchen, Germany), 5.6 mM glucose and 0.05% gelatin (Merck KGaA, Darmstadt, Germany) is added to the plates. After incubation for a further 20 minutes at room temperature, the plates are inserted into the FLIPR for Ca^2+ measurement. The Ca^2+-dependent fluorescence is measured before and after the addition of substances (λex=488 nm, λem=540 nm). Quantification is carried out by measuring the highest fluorescence intensity (FC, fluorescence counts) over time.
(§4) The FLIPR protocol consists of 2 substance additions. Test substances (10 μM) are first pipetted onto the cells and the Ca^2+ influx is compared with the control (hB1R: Lys-Des-Arg^9-bradykinin 0.5 nM; rB1R: Des-Arg^9-bradykinin 100 nM). This gives the activation in %, based on the Ca^2+ signal after addition of Lys-Des-Arg^9-bradykinin (0.5 nM) or Des-Arg^9-bradykinin (100 nM).
(§5) After 10 minutes' incubation, 0.5 nM Lys-Des-Arg^9-bradykinin (hB1R) or 100 nM Des-Arg^9-bradykinin (rB1R) are applied, and the influx of Ca^2+ is likewise determined. Antagonists lead to suppression of the Ca^2+ influx. The % inhibition compared with the maximum achievable inhibition is calculated.

B1R receptor of the rat = target: T2, B1R receptor of the rat (Rattus norvegicus, UniProt P97583); experiment: Functional study on the bradykinin receptor 1 (B1R), FLIPR Ca2+ assay, rB1R cells; assay type: cell-based; details: agonist Des-Arg9-bradykinin 100 nM, % inhibition compared with the maximum achievable inhibition; for inhibition at 10 µM: CHO-K1, test substance 10 μM, read-out: B1R Antagonism, rat [10 μM] % Inhibition
T2 construct: host or cells: CHO K1 cells (Chinese hamster ovary), stably transfected
T2 sequence (P97583 1-337): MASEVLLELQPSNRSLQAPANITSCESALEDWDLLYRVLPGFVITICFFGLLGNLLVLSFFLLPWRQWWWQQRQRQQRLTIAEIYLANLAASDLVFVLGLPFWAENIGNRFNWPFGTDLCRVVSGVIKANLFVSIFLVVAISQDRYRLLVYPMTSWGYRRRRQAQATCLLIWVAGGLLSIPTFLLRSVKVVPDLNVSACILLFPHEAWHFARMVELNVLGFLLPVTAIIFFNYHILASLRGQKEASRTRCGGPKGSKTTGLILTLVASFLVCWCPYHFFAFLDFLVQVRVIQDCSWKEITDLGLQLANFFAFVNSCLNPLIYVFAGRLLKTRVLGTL
Description: as §1, §2, §3, §4, §5

inhibition at 10 µM (human B1R receptor) | inhibition at 10 µM (B1R receptor of the rat) | B1R Antagonism, human [10 μM] % Inhibition (human B1R receptor; test substance 10 μM, hB1R CHO K1 cells) | B1R Antagonism, rat [10 μM] % Inhibition (B1R receptor of the rat; test substance 10 μM, rB1R CHO K1 cells) | Structure (SMILES)
86.8% | 4.56% | – | – | O=C(COCC1CCCCN1S(=O)(=O)c1ccc(Cl)c(Cl)c1)N1CCC(N2CCCC2)CC1 (stereo not shown) [Example 26, 2-[1-(3,4-dichloro-phenylsulfonyl)-piperidin-2-ylmethoxy]-1-(4-pyrrolidin-1-yl-piperidin-1-yl)-ethanone]
85.4% | 97.7% | – | – | Cc1cc(C)c(S(=O)(=O)N2CCCCC2COCC(=O)N2CCCC2CN2CCCCC2)c(C)c1 (stereo not shown) [Example 27, 1-(2-piperidin-1-ylmethyl-pyrrolidin-1-yl)-2-[1-(2,4,6-trimethyl-phenylsulfonyl)-piperidin-2-ylmethoxy]-ethanone]
84.7% | 0% | – | – | CN1CCN(C2CCN(C(=O)COCC3CCCCN3S(=O)(=O)c3ccc(Cl)c(Cl)c3)CC2)CC1 (stereo not shown) [Example 28, 2-[1-(3,4-dichloro-phenylsulfonyl)-piperidin-2-ylmethoxy]-1-[4-(4-methyl-piperazin-1-yl)-piperidin-1-yl]-ethanone]
83.3% | 63.3% | – | – | CN1CCC(N2CCN(C(=O)COCC3CCCCN3S(=O)(=O)c3ccc(Cl)c(Cl)c3)CC2)CC1 (stereo not shown) [Example 32, 2-[1-(3,4-dichloro-phenylsulfonyl)-piperidin-2-ylmethoxy]-1-[4-(1-methyl-piperidin-4-yl)-piperazin-1-yl]-ethanone]
79.4% | 45.7% | – | – | O=C(COCC1CCCN1S(=O)(=O)c1ccc(Cl)c(Cl)c1)N1CCC(CCN2CCCCC2)CC1 (stereo not shown) [Example 36, 2-((1-(3,4-dichlorophenylsulfonyl)pyrrolidin-2-yl)methoxy)-1-(4-(2-(piperidin-1-yl)-ethyl)piperidin-1-yl)ethanone]
75% | 65.4% | – | – | O=C(COCC1Cc2ccccc2CN1S(=O)(=O)c1ccc(Cl)c(Cl)c1)N1CCC(N2CCCC2)CC1 (stereo not shown) [Example 38, 2-((2-(3,4-dichlorophenylsulfonyl)-1,2,3,4-tetrahydroisoquinolin-3-yl)methoxy)-1-(4-(pyrrolidin-1-yl)piperidin-1-yl)ethanone]
73.2% | 0% | – | – | O=C(COCC1CCCCN1S(=O)(=O)c1ccc(Cl)c(Cl)c1)N1CCN(Cc2ccc3c(c2)OCO3)CC1 (stereo not shown) [Example 39, 1-(4-benzo[1,3]dioxol-5-ylmethyl-piperazin-1-yl)-2-[1-(3,4-dichloro-phenylsulfonyl)-piperidin-2-ylmethoxy]-ethanone]

Continued, compound first:

Structure (SMILES) | inhibition at 10 µM (human B1R receptor) | inhibition at 10 µM (B1R receptor of the rat) | B1R Antagonism, human [10 μM] % Inhibition (human B1R receptor; test substance 10 μM, hB1R CHO K1 cells) | B1R Antagonism, rat [10 μM] % Inhibition (B1R receptor of the rat; test substance 10 μM, rB1R CHO K1 cells)
COc1cc(C)c(S(=O)(=O)N2CCCCC2COCC(=O)NCc2ccc(CN3CCOCC3)cc2)c(C)c1 (stereo not shown) [Example 24, 2-[1-(4-methoxy-2,6-dimethyl-phenylsulfonyl)-piperidin-2-ylmethoxy]-N-(4-morpholin-4-ylmethyl-benzyl)-acetamide] | 92.2% | 107% | – | –
Cc1cc(C)c(S(=O)(=O)N2Cc3ccccc3CC2COCC(=O)N2CCN(CCCN(C)C)CC2)c(C)c1 (stereo not shown) [Example 25, 1-[4-(3-dimethylamino-propyl)-piperazin-1-yl]-2-[2-(2,4,6-trimethyl-phenylsulfonyl)-1,2,3,4-tetrahydro-isoquinolin-3-ylmethoxy]-ethanone] | 91% | 80.6% | – | –
CN1CCN(c2ccc(CNC(=O)COCC3CCCN3S(=O)(=O)c3c(Cl)cc(Cl)cc3Cl)cc2)CC1 (stereo not shown) [Example 29, N-[4-(4-methyl-piperazin-1-yl)-benzyl]-2-[1-(2,4,6-trichloro-phenylsulfonyl)-pyrrolidin-2-ylmethoxy]-acetamide] | 84.4% | 110% | – | –
O=C(COCC1CCCCN1S(=O)(=O)c1c(Cl)cc(Cl)cc1Cl)NCc1ccc(CN2CCOCC2)cc1 (stereo not shown) [Example 30, N-(4-morpholin-4-ylmethyl-benzyl)-2-[1-(2,4,6-trichloro-phenylsulfonyl)-piperidin-2-ylmethoxy]-acetamide] | 84% | 108% | – | –
Cc1cc(C)c(S(=O)(=O)N2CCCCC2COCC(=O)N2CCCN(Cc3ccccc3)CC2)c(C)c1 (stereo not shown) [Example 31, 1-(4-benzyl-[1,4]diazepan-1-yl)-2-[1-(2,4,6-trimethyl-phenylsulfonyl)-piperidin-2-ylmethoxy]-ethanone] | 83.8% | 94.7% | – | –
Cc1cc(C)c(S(=O)(=O)N2Cc3ccccc3CC2COCC(=O)NCc2cccc(N3CCN(C)CC3)c2)c(C)c1 (stereo not shown) [Example 33, N-[3-(4-methyl-piperazin-1-yl)-benzyl]-2-[2-(2,4,6-trimethyl-phenylsulfonyl)-1,2,3,4-tetrahydro-isoquinolin-3-ylmethoxy]-acetamide] | 82.7% | 47.7% | – | –
O=C(COCC1CCCCN1S(=O)(=O)c1cccc2ccccc12)NCC1CCCN(Cc2ccccc2)C1 (stereo not shown) [Example 34, N-(1-benzyl-piperidin-3-ylmethyl)-2-[1-(naphthyl-1-sulfonyl)-piperidin-2-ylmethoxy]-acetamide] | – | – | 79.9% | 39.48%
COc1cc(C)c(S(=O)(=O)N2CCCC2COCC(=O)NCc2ccc(CN(C)C)cc2)c(C)c1 (stereo not shown) [Example 35, N-(4-dimethylaminomethyl-benzyl)-2-[1-(4-methoxy-2,6-dimethyl-phenylsulfonyl)-pyrrolidin-2-ylmethoxy]-acetamide] | 79.7% | 99% | – | –
CN(C)Cc1ccc(CNC(=O)COCC2CCCCN2S(=O)(=O)c2c(Cl)cc(Cl)cc2Cl)cc1 (stereo not shown) [Example 37, N-(4-dimethylaminomethyl-benzyl)-2-[1-(2,4,6-trichloro-phenylsulfonyl)-piperidin-2-ylmethoxy]-acetamide] | 78.2% | 103% | – | –
COc1cc(C)c(S(=O)(=O)N2CCCC2COCC(=O)NCc2ccc(CN3CCN(C)CC3)cc2)c(C)c1 (stereo not shown) [Example 40, 2-[1-(4-methoxy-2,6-dimethyl-phenylsulfonyl)-pyrrolidin-2-ylmethoxy]-N-[4-(4-methyl-piperazin-1-ylmethyl)-benzyl]-acetamide] | 72.7% | 88.7% | – | –
